For 13 compounds, IC50 results are on record in patent US9713615B2, “Tetrahydroisoquinolin-2-yl-(quinazolin-4-yl)methanone compounds” (Rexahn Pharmaceuticals, Inc., priority 2013, dated 2017).

One assay concerns MDA-MB-231 (breast). As to the kind of experiment: SRB growth inhibition assay, MDA-MB-231. Type of assay: cell-based, Human. The following applies: Homo sapiens, MDA-MB-231, 96 hours incubation, read-out: Inhibition of cell growth (IC50, μM) MDA-MB-231. An excerpt:
(§1) Cancer cells used in this study to determine the effect of tetrahydroisoquinolin-2-yl-(quinazolin-4-yl)methanone compounds were obtained from the following sources: Human OVCAR-3 (ovary), SK-MEL-28 (melanoma), MDA-MB-231 (breast), HeLa (cervix), PC3 (prostate), HepG2 (liver), A549 (lung), Caki-1 (kidney), HCT116 (colon) and PANC-1 (pancreas) from the American Type Culture Collection (ATCC) (Manassas, Va.); U251 (brain) from Riken (Japan); MKN-45 (stomach) from DSMZ (Germany). All cell lines except MDA-MB-231, HCT116, Caki-1 and PANC-1 were grown in RPMI1640 medium (Invitrogen, Carlsbad, Calif.) supplemented with 10% fetal bovine serum (“FBS”), 1 mM sodium pyruvate, 10 mM HEPES and 100 U/ml penicillin and 100 μg/ml streptomycin (“P/S”). MDA-MB-231, HCT116, Caki-1 and PANC-1 cells were maintained in Dulbecco's modified Eagle's medium (“DMEM”, Invitrogen) supplemented with 10% FBS, P/S, 10 mM HEPES and 2 mM L-glutamine. All cells were incubated at 37° C. under humidified 5% CO2.
(§2) The growth inhibition of the tetrahydroisoquinolin-2-yl-(quinazolin-4-yl)methanone compounds against a variety of human tumor cells was evaluated to study the relative importance of particular substituent groups on the compounds. The tetrahydroisoquinolin-2-yl-(quinazolin-4-yl)methanone compounds, prepared as described above, were tested with DMSO as a control.
(§3) The growth inhibition assay of representative tetrahydroisoquinolin-2-yl-(quinazolin-4-yl)methanone derivatives against human tumor cell lines was performed using the Sulforhodamine B (“SRB”) method (Skehan et al., J. National Cancer Institute, 82: 1107-1112 (1990)). Briefly, exponentially growing tumor cells were seeded into a 96-well plate at a density of 2-3×10^3 cells/well and treated with tetrahydroisoquinolin-2-yl-(quinazolin-4-yl)methanone compounds the next day. Triplicate wells were used for each treatment. The cells were incubated with the various compounds for 96 hours at 37° C. in a humidified 5% CO2 atmosphere. After 96-hour incubation, cells were fixed with 10% trichloroacetic acid (“TCA”), incubated for 1 hour at 4° C., and washed 3 times with tap water. Subsequently, cells were stained with 0.4% sulforhodamine B in 1% acetic acid for 30 minutes, washed 4 times with 1% acetic acid, and air-dried again After 5 minutes agitation in 10 mM Tris solution, the absorbance of each well was measured at 530 nm using Benchmark Plus Microplate reader (Bio-Rad Laboratories, Hercules, Calif.).
(§4) To translate the OD530 values into the number of live cells in each well, the OD530 values were compared to those on standard OD530-versus-cell number curves generated for each cell line. The percent survival was calculated using the formula: % Survival=live cell number [test]/live cell number [control]×100
(§5) The IC50 values were calculated by non-linear regression analysis.
(§6) The compounds were screened against at […] including PANC-1, MDA-MB-231, HCT116 and Caki-1, at approximately 1 μM concentration. The inhibition of cell growth (IC50, μM) of some tetrahydroisoquinolin-2-yl-(quinazolin-4-yl)methanone compounds are shown in Table 2.

In a further assay the test system is HCT116 (colon). Kind of assay: SRB growth inhibition assay, HCT116. The class given is cell-based, Human. The following applies: Homo sapiens, HCT-116, 96 hours incubation, read-out: Inhibition of cell growth (IC50, μM) HCT116.
From the text: as §1, §2, §3, §4, §5, §6

Another assay has as its system Caki-1 (kidney). Kind of assay: SRB growth inhibition assay, Caki-1. The class given is cell-based, Human. The settings on record: Homo sapiens, CAKI-1, 96 hours incubation, read-out: Inhibition of cell growth (IC50, μM) Caki-1.
From the text: as §1, §2, §3, §4, §5, §6

The test system of the next assay is PANC-1 (pancreas). Kind of assay: SRB growth inhibition assay, PANC-1. Type of assay: cell-based, Human. The following applies: Homo sapiens, PANC-1, 96 hours incubation, read-out: Inhibition of cell growth (IC50, μM) Panc-1.
From the text: as §1, §2, §3, §4, §5, §6

A further assay relates to SK-MEL-28 (melanoma). As to the kind of experiment: SRB growth inhibition assay, SK-MEL-28. Type of assay: cell-based. The following applies: Homo sapiens, 96 hours incubation, read-out: Inhibition of cell growth (IC50, μM) SK-MEL-28.
From the text: as §1, §2, §3, §4, §5

In the next assay the test system is OVCAR-3 (ovary). Kind of assay: SRB growth inhibition assay, OVCAR-3. The settings on record: Homo sapiens, 96 hours incubation, read-out: Inhibition of cell growth (IC50, μM) Ovcar3. Type of assay: cell-based.
From the text: as §1, §2, §3, §4, §5

In the next assay the test system is U251 (brain). As to the kind of experiment: SRB growth inhibition assay, U251. The class given is cell-based. The following applies: Homo sapiens, U-251, 96 hours incubation, read-out: Inhibition of cell growth (IC50, μM) U251.
From the text: as §1, §2, §3, §4, §5

The next assay has as its system HepG2 (liver). As to the kind of experiment: SRB growth inhibition assay, HepG2. Type of assay: cell-based. The following applies: Homo sapiens, 96 hours incubation, read-out: Inhibition of cell growth (IC50, μM) HepG2.
From the text: as §1, §2, §3, §4, §5

Another assay deals with PC3 (prostate). Kind of assay: SRB growth inhibition assay, PC3. The following applies: Homo sapiens, 96 hours incubation, read-out: Inhibition of cell growth (IC50, μM) PC-3. The class given is cell-based.
From the text: as §1, §2, §3, §4, §5

The next assay deals with MKN-45 (stomach). Kind of assay: SRB growth inhibition assay, MKN-45. The class given is cell-based. The following applies: Homo sapiens, 96 hours incubation, read-out: Inhibition of cell growth (IC50, μM) MKN-45.
From the text: as §1, §2, §3, §4, §5

The subject of another assay is HeLa (cervix). Kind of assay: SRB growth inhibition assay, HeLa. The following applies: Homo sapiens, 96 hours incubation, read-out: Inhibition of cell growth (IC50, μM) HeLa. The class given is cell-based.
From the text: as §1, §2, §3, §4, §5

The test system of a further assay is A549 (lung). As to the kind of experiment: SRB growth inhibition assay, A549. The class given is cell-based. The settings on record: Homo sapiens, 96 hours incubation, read-out: Inhibition of cell growth (IC50, μM) A549.
From the text: as §1, §2, §3, §4, §5

For the compound `COc1ccc2c(c1O)CCN(C(=O)c1nc(-c3ccc(F)cc3F)nc3ccccc13)C2` [Compound 57, 2-[[2-(2,4-difluorophenyl)quinazolin-4-yl]carbonyl]-5-hydroxy-6-methoxy-1,2,3,4-tetrahydroisoquinoline], the half-inhibitory concentration (IC50) (usually the concentration that gives 50% inhibition) in the assay on MDA-MB-231 (breast) turned out to be 0.17 µM; in the assay with HCT116 (colon) it was 0.22 µM; with Caki-1 (kidney) it was 0.21 µM; with PANC-1 (pancreas), 0.19 µM; in the assay on SK-MEL-28 (melanoma), 0.2 µM; with OVCAR-3 (ovary), 0.23 µM. The half-inhibitory concentration (IC50) with U251 (brain) stood at 0.17 µM; in the assay with HepG2 (liver) it was 0.31 µM; in the assay on PC3 (prostate), 0.21 µM.
For the compound `COc1ccc2c(c1)CCN(C(=O)c1nc(-c3ccc(F)cc3)nc3ccccc13)C2` [Compound 7, 2-[[2-(4-fluorophenyl)quinazolin-4-yl]carbonyl]-6-methoxy-1,2,3,4-tetrahydroisoquinoline], the half-maximal inhibitory concentration (IC50) came out at 0.9 µM in the assay with MDA-MB-231 (breast); 1.1 µM in the assay with HCT116 (colon); 0.61 µM in the assay on Caki-1 (kidney); 0.53 µM in the assay on PANC-1 (pancreas); 0.19 µM in the assay with MKN-45 (stomach); 0.36 µM in the assay on SK-MEL-28 (melanoma). The IC50 with HeLa (cervix) stood at 0.24 µM; in the assay with OVCAR-3 (ovary) it was 0.16 µM; in the assay on U251 (brain) it was 0.64 µM; with HepG2 (liver), 0.72 µM.
In the case of `COc1ccc(-c2nc(C(=O)N3CCc4c(ccc(OC)c4O)C3)c3ccccc3n2)cc1` [Compound 22, 2-[[2-(4-methoxylphenyl)quinazolin-4-yl]carbonyl]-5-hydroxy-6-methoxy-1,2,3,4-tetrahydroisoquinoline], the half-maximal inhibitory concentration (IC50) in the assay on MDA-MB-231 (breast) came out at 0.052 µM; in the assay with HCT116 (colon), 0.086 µM; with Caki-1 (kidney) it was 0.057 µM; in the assay with PANC-1 (pancreas) it was 0.056 µM; with MKN-45 (stomach), 0.055 µM; in the assay with SK-MEL-28 (melanoma), 0.072 µM. The half-inhibitory concentration (IC50) was determined as 0.064 µM in the assay on HeLa (cervix); 0.08 µM in the assay on OVCAR-3 (ovary); 0.069 µM with U251 (brain); 0.19 µM in the assay on HepG2 (liver); 0.15 µM in the assay on A549 (lung); 0.076 µM with PC3 (prostate).
Regarding `COc1ccc2c(c1O)CCN(C(=O)c1nc(-c3ccc(F)cc3)nc3ccc(F)cc13)C2` [Compound 97, 2-[[6-fluoro-2-(4-fluorophenyl)quinazolin-4-yl]carbonyl]-5-hydroxy-6-methoxy-1,2,3,4-tetrahydroisoquinoline], the concentration for half-maximal inhibition (IC50) in the assay on MDA-MB-231 (breast) was found to be 0.16 µM; with HCT116 (colon) it was 0.17 µM; in the assay on Caki-1 (kidney), 0.11 µM; with PANC-1 (pancreas) it was 0.13 µM; in the assay on MKN-45 (stomach) it was 0.087 µM; in the assay on SK-MEL-28 (melanoma) it was 0.11 µM. Further, the IC50 was found to be 0.16 µM in the assay on HeLa (cervix), 0.073 µM in the assay with OVCAR-3 (ovary), 0.13 µM with U251 (brain) and 0.18 µM in the assay with HepG2 (liver).
`COc1ccc2c(c1OC)CCN(C(=O)c1nc(-c3ccncn3)nc3ccccc13)C2` [Compound 72, 2-[[2-(4-pyrimidinyl)quinazolin-4-yl]carbonyl]-5,6-dimethoxy-1,2,3,4-tetrahydroisoquinoline]: the 50% inhibitory concentration (IC50) in the assay on MDA-MB-231 (breast) stood at 0.46 µM; with HCT116 (colon), 0.55 µM; in the assay with Caki-1 (kidney) it was 0.39 µM; in the assay with PANC-1 (pancreas) it was 0.49 µM.
For `COc1ccc2c(c1O)CCN(C(=O)c1nc(-c3ccc(NC(C)=O)cc3)nc3ccccc13)C2` [Compound 62, 2-[[2-(4-acetamidophenyl)quinazolin-4-yl]carbonyl]-5-hydroxy-6-methoxy-1,2,3,4-tetrahydroisoquinoline] the same measures were 0.2 µM, 0.34 µM, 0.2 µM and 0.21 µM.
For `COc1cccc(-c2nc(C(=O)N3CCc4c(ccc(OC)c4O)C3)c3ccccc3n2)c1` [Compound 47, 2-[[2-(3-methoxylphenyl)quinazolin-4-yl]carbonyl]-5-hydroxy-6-methoxy-1,2,3,4-tetrahydroisoquinoline] the same measures were 0.49 µM, 0.81 µM, 0.59 µM and 0.5 µM.
For `CC(=O)Nc1ccc(-c2nc(C(=O)N3CCc4c(ccc(C)c4O)C3)c3ccccc3n2)cc1` [Compound 64, 2-[[2-(4-acetamidophenyl)quinazolin-4-yl]carbonyl]-5-hydroxy-6-methyl-1,2,3,4-tetrahydroisoquinoline] the same measures were 0.52 µM, 0.89 µM, 0.63 µM and 0.68 µM.
Regarding `COc1ccc2c(c1O)CCN(C(=O)c1nc(-c3ccc(N(C)C)cc3)nc3ccccc13)C2` [Compound 32, 2-[[2-(4-(dimethylamino)phenyl)quinazolin-4-yl]carbonyl]-5-hydroxy-6-methoxy-1,2,3,4-tetrahydroisoquinoline], the concentration for half-maximal inhibition (IC50) with MDA-MB-231 (breast) came to 0.43 µM; in the assay with HCT116 (colon), 0.52 µM; with Caki-1 (kidney), 0.37 µM; in the assay with PANC-1 (pancreas), 0.47 µM.
For `Cc1ccc2c(c1O)CCN(C(=O)c1nc(-c3ccc(F)cc3)nc3ccccc13)C2` [Compound 5, 2-[[2-(4-fluorophenyl)quinazolin-4-yl]carbonyl]-5-hydroxy-6-methyl-1,2,3,4-tetrahydroisoquinoline] the same measures were 0.38 µM, 0.47 µM, 0.36 µM and 0.4 µM.
For `COc1ccc2c(c1O)CCN(C(=O)c1nc(-c3ccc(Cl)cc3)nc3ccccc13)C2` [Compound 27, 2-[[2-(4-chlorophenyl)quinazolin-4-yl]carbonyl]-5-hydroxy-6-methoxy-1,2,3,4-tetrahydroisoquinoline] the same measures were 0.54 µM, 0.5 µM, 0.46 µM and 0.42 µM.
For `COc1ccc2c(c1O)CCN(C(=O)c1nc(-c3cccc(C(F)(F)F)c3)nc3ccccc13)C2` [Compound 52, 2-[[2-(3-(trifluoromethyl)phenyl)quinazolin-4-yl]carbonyl]-5-hydroxy-6-methoxy-1,2,3,4-tetrahydroisoquinoline] the same measures were 1.62 µM, 2.67 µM, 1.91 µM and 2.51 µM.
With `Cc1ccc2c(c1O)CCN(C(=O)c1nc(-c3ccc(F)cc3F)nc3ccccc13)C2` [Compound 61, 2-[[2-(2,4-difluorophenyl)quinazolin-4-yl]carbonyl]-5-hydroxy-6-methyl-1,2,3,4-tetrahydroisoquinoline], the 50% inhibitory concentration (IC50) was 1.84 µM with MDA-MB-231 (breast), 2.76 µM in the assay with HCT116 (colon), 2.47 µM in the assay on Caki-1 (kidney) and 2.31 µM with PANC-1 (pancreas).
